Data taken from US20230085307A1, “PYRIDAZINONE COMPOUND AND HERBICIDE” (NISSAN CHEMICAL CORPORATION, priority 2019, published 2023).

Legend:
[1] = tested on: wild oat; assay: Test Example 4: herbicidal effect by soil treatment (Table 19, symbol I); type: in vivo, wild oat (Avena fatua); conditions: for herbicidal effect on I: wild oat: amount of applied herbicide 320 g/ha
Summary of the method: (§1)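 Seeds were sown in sterilized diluvial soil and covered with about 1.5 cm of soil. An emulsion formulation diluted with water to a predetermined herbicide amount was sprayed evenly onto the soil surface. Plants grew in a greenhouse at 25° C. to 30° C., and the effect was scored three weeks after application using criteria from an earlier test.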

[2] = tested on: velvetleaf; assay: Test Example 4: herbicidal effect by soil treatment (Table 19, symbol M); type: in vivo, velvetleaf (Abutilon theophrasti); conditions: for herbicidal effect on M: velvetleaf: amount of applied herbicide 320 g/ha
Summary of the method: as §1

[3] = tested on: late watergrass; assay: Test Example 2: herbicidal activity, application during weed generation under submerged conditions (Table 17, symbol A); type: in vivo, late watergrass (Echinochloa oryzicola); conditions: AAH 320 g/ha; application during weed generation, submerged conditions
Summary of the method: (§2)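 Mixed weed seedlings in alluvial soil under a 4 cm water layer, greenhouse-grown at 25–30° C. Compound given as a diluted emulsion into the floodwater at the 1–2 leaf stage; response graded after three weeks.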

[4] = tested on: persian speedwell; assay: Test Example 5: herbicidal effect by foliage application, plastic box (Table 20, symbol R); type: in vivo, Persian speedwell (Veronica persica); conditions: foliage application
Summary of the method: (§3)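 Plants sown in sterilized diluvial soil and grown 14 days in a greenhouse at 25° C to 30° C, then sprayed on the foliage with the compound's emulsion diluted in water to a predetermined herbicide amount. Injury to weeds and crops scored three weeks after application on a visual rating scale.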

[5] = tested on: oval-leafed pondweed; assay: Test Example 2: herbicidal activity, application during weed generation under submerged conditions (Table 17, symbol C); type: in vivo, oval-leafed pondweed (Monochoria vaginalis); conditions: AAH 320 g/ha; application during weed generation, submerged conditions
Summary of the method: as §2

[6] = tested on: green foxtail; assay: Test Example 4: herbicidal effect by soil treatment (Table 19, symbol G); type: in vivo, green foxtail (Setaria viridis); conditions: for herbicidal effect on G: green foxtail: amount of applied herbicide 320 g/ha
Summary of the method: as §1

[7] = tested on: barnyard grass; assay: Test Example 4: herbicidal effect by soil treatment (Table 19, symbol H); type: in vivo, barnyard grass (Echinochloa crus-galli); conditions: for herbicidal effect on H: barnyard grass: amount of applied herbicide 320 g/ha
Summary of the method: as §1

[8] = tested on: southern crabgrass; assay: Test Example 4: herbicidal effect by soil treatment (Table 19, symbol F); type: in vivo, southern crabgrass (Digitaria ciliaris); conditions: for herbicidal effect on F: southern crabgrass: amount of applied herbicide 320 g/ha
Summary of the method: as §1

[9] = tested on: chickweed; assay: Test Example 5: herbicidal effect by foliage application, plastic box (Table 20, symbol P); type: in vivo, common chickweed (Stellaria media); conditions: foliage application
Summary of the method: as §3

[10] = tested on: blackgrass; assay: Test Example 4: herbicidal effect by soil treatment (Table 19, symbol J); type: in vivo, blackgrass (Alopecurus myosuroides); conditions: for herbicidal effect on J: blackgrass: amount of applied herbicide 320 g/ha
Summary of the method: as §1

[11] = tested on: redroot pigweed; assay: Test Example 5: herbicidal effect by foliage application, plastic box (Table 20, symbol N); type: in vivo, redroot pigweed (Amaranthus retroflexus); conditions: foliage application
Summary of the method: as §3

[12] = tested on: redroot pigweed; assay: Test Example 4: herbicidal effect by soil treatment (Table 19, symbol N); type: in vivo, redroot pigweed (Amaranthus retroflexus); conditions: for herbicidal effect on N: redroot pigweed: amount of applied herbicide 320 g/ha
Summary of the method: as §1

[13] = tested on: Japanese bulrush; assay: Test Example 2: herbicidal activity, application during weed generation under submerged conditions (Table 17, symbol B); type: in vivo, Japanese bulrush (Schoenoplectus juncoides); conditions: AAH 320 g/ha; application during weed generation, submerged conditions
Summary of the method: as §2

[14] = tested on: barnyard grass; assay: Test Example 5: herbicidal effect by foliage application, plastic box (Table 20, symbol H); type: in vivo, barnyard grass (Echinochloa crus-galli); conditions: foliage application
Summary of the method: as §3

[15] = tested on: windgrass; assay: Test Example 5: herbicidal effect by foliage application, plastic box (Table 20, symbol L); type: in vivo, windgrass (Apera spica-venti); conditions: foliage application
Summary of the method: as §3

[16] = tested on: persian speedwell; assay: Test Example 4: herbicidal effect by soil treatment (Table 19, symbol R); type: in vivo, Persian speedwell (Veronica persica); conditions: for herbicidal effect on R: persian speedwell: amount of applied herbicide 320 g/ha
Summary of the method: as §1

[17] = AAH 320 g/ha, evaluated three weeks after application
[18] = 320 g/ha, evaluated three weeks after application
[19] = AAH 320 g/ha, three weeks after application

C#CCSCc1ccc(-c2sc3ccc(F)cc3c2-c2c(O)c(C)nn(C)c2=O)cc1 [2-325]
herbicidal effect on I: wild oat [1]: 0 (Herbicidal rate of 5% or less (almost no effect))
herbicidal effect on M: velvetleaf [2]: 0 (Herbicidal rate of 5% or less (almost no effect))
herbicidal effect rating, A: late watergrass [3]: 2 (Herbicidal rate of 20% or more and less than 40%)
R: persian speedwell, herbicidal effect (criteria 0-5) [4, 17]: 5 (Herbicidal rate of 90% or more (almost completely withered))
herbicidal effect rating, C: oval-leafed pondweed [5]: 0 (Herbicidal rate of 5% or less (almost no effect))
herbicidal effect on G: green foxtail [6]: 2 (Herbicidal rate of 20% or more and less than 40%)
herbicidal effect on H: barnyard grass [7]: 3 (Herbicidal rate of 40% or more and less than 70%)
herbicidal effect on F: southern crabgrass [8]: 0 (Herbicidal rate of 5% or less (almost no effect))
P: chickweed, herbicidal effect (criteria 0-5) [9, 17]: 5 (Herbicidal rate of 90% or more (almost completely withered))
herbicidal effect on J: blackgrass [10]: 0 (Herbicidal rate of 5% or less (almost no effect))
N: redroot pigweed, herbicidal effect (criteria 0-5) [11, 17]: 5 (Herbicidal rate of 90% or more (almost completely withered))
herbicidal effect on N: redroot pigweed [12]: 4 (Herbicidal rate of 70% or more and less than 90%)
herbicidal effect rating, B: Japanese bulrush [13]: 2 (Herbicidal rate of 20% or more and less than 40%)
H: barnyard grass, herbicidal effect (criteria 0-5) [14, 17]: 5 (Herbicidal rate of 90% or more (almost completely withered))
L: windgrass, herbicidal effect (criteria 0-5) [15, 17]: 5 (Herbicidal rate of 90% or more (almost completely withered))
herbicidal effect on R: persian speedwell [16]: 5 (Herbicidal rate of 90% or more (almost completely withered))

Cc1nn(C)c(=O)c(-c2c(-c3ccc(C(F)F)cc3)sc3ccc(F)cc23)c1O [2-227]
herbicidal effect on I: wild oat [1]: 0 (Herbicidal rate of 5% or less (almost no effect))
herbicidal effect on M: velvetleaf [2]: 5 (Herbicidal rate of 90% or more (almost completely withered))
herbicidal effect rating, A: late watergrass [3]: 0 (Herbicidal rate of 5% or less (almost no effect))
herbicidal effect on R: persian speedwell (criteria 0-5) [4, 18]: 5 (Herbicidal rate of 90% or more (almost completely withered))
herbicidal effect rating, C: oval-leafed pondweed [5]: 0 (Herbicidal rate of 5% or less (almost no effect))
herbicidal effect on G: green foxtail [6]: 4 (Herbicidal rate of 70% or more and less than 90%)
herbicidal effect on H: barnyard grass [7]: 5 (Herbicidal rate of 90% or more (almost completely withered))
herbicidal effect on F: southern crabgrass [8]: 5 (Herbicidal rate of 90% or more (almost completely withered))
herbicidal effect on P: chickweed (criteria 0-5) [9, 18]: 5 (Herbicidal rate of 90% or more (almost completely withered))
herbicidal effect on J: blackgrass [10]: 1 (Herbicidal rate of 5% or more and less than 20%)
herbicidal effect on N: redroot pigweed (criteria 0-5) [11, 18]: 5 (Herbicidal rate of 90% or more (almost completely withered))
herbicidal effect on N: redroot pigweed [12]: 5 (Herbicidal rate of 90% or more (almost completely withered))
herbicidal effect rating, B: Japanese bulrush [13]: 2 (Herbicidal rate of 20% or more and less than 40%)
herbicidal effect on H: barnyard grass (criteria 0-5) [14, 18]: 5 (Herbicidal rate of 90% or more (almost completely withered))
herbicidal effect on L: windgrass (criteria 0-5) [15, 18]: 0 (Herbicidal rate of 5% or less (almost no effect))
herbicidal effect on R: persian speedwell [16]: 4 (Herbicidal rate of 70% or more and less than 90%)

COCCOc1ccc(-c2sc3ccc(F)cc3c2-c2c(O)c(C)nn(C)c2=O)cc1 [2-056]
herbicidal effect rating, I: wild oat ([1]; 320 g/ha): 0 (Herbicidal rate of 5% or less (almost no effect))
herbicidal effect rating, M: velvetleaf ([2]; 320 g/ha): 5 (Herbicidal rate of 90% or more (almost completely withered))
herbicidal effect rating, A: late watergrass [3]: 3 (Herbicidal rate of 40% or more and less than 70%)
herbicidal effect on R: persian speedwell [4, 18]: 5 (Herbicidal rate of 90% or more (almost completely withered))
herbicidal effect rating, C: oval-leafed pondweed [5]: 3 (Herbicidal rate of 40% or more and less than 70%)
herbicidal effect rating, G: green foxtail ([6]; 320 g/ha): 5 (Herbicidal rate of 90% or more (almost completely withered))
herbicidal effect rating, H: barnyard grass ([7]; 320 g/ha): 5 (Herbicidal rate of 90% or more (almost completely withered))
herbicidal effect rating, F: southern crabgrass ([8]; 320 g/ha): 5 (Herbicidal rate of 90% or more (almost completely withered))
herbicidal effect on P: chickweed [9, 18]: 5 (Herbicidal rate of 90% or more (almost completely withered))
herbicidal effect rating, J: blackgrass ([10]; 320 g/ha): 0 (Herbicidal rate of 5% or less (almost no effect))
herbicidal effect on N: redroot pigweed [11, 18]: 5 (Herbicidal rate of 90% or more (almost completely withered))
herbicidal effect rating, N: redroot pigweed ([12]; 320 g/ha): 5 (Herbicidal rate of 90% or more (almost completely withered))
herbicidal effect rating, B: Japanese bulrush [13]: 3 (Herbicidal rate of 40% or more and less than 70%)
herbicidal effect on H: barnyard grass [14, 18]: 5 (Herbicidal rate of 90% or more (almost completely withered))
herbicidal effect on L: windgrass [15, 18]: 4 (Herbicidal rate of 70% or more and less than 90%)
herbicidal effect rating, R: persian speedwell ([16]; 320 g/ha): 5 (Herbicidal rate of 90% or more (almost completely withered))

Cc1nn(C)c(=O)c(-c2c(-c3ccc(OCC(F)(F)F)cc3)sc3ccccc23)c1O [1-140]
I: wild oat, herbicidal effect rating ([1]; AAH 320 g/ha): 0 (Herbicidal rate of 5% or less (almost no effect))
M: velvetleaf, herbicidal effect rating ([2]; AAH 320 g/ha): 5 (Herbicidal rate of 90% or more (almost completely withered))
herbicidal effect rating, A: late watergrass [3]: 3 (Herbicidal rate of 40% or more and less than 70%)
R: persian speedwell, herbicidal effect [4, 19]: 5 (Herbicidal rate of 90% or more (almost completely withered))
herbicidal effect rating, C: oval-leafed pondweed [5]: 0 (Herbicidal rate of 5% or less (almost no effect))
G: green foxtail, herbicidal effect rating ([6]; AAH 320 g/ha): 5 (Herbicidal rate of 90% or more (almost completely withered))
H: barnyard grass, herbicidal effect rating ([7]; AAH 320 g/ha): 5 (Herbicidal rate of 90% or more (almost completely withered))
F: southern crabgrass, herbicidal effect rating ([8]; AAH 320 g/ha): 5 (Herbicidal rate of 90% or more (almost completely withered))
P: chickweed, herbicidal effect [9, 19]: 5 (Herbicidal rate of 90% or more (almost completely withered))
J: blackgrass, herbicidal effect rating ([10]; AAH 320 g/ha): 0 (Herbicidal rate of 5% or less (almost no effect))
N: redroot pigweed, herbicidal effect [11, 19]: 4 (Herbicidal rate of 70% or more and less than 90%)
N: redroot pigweed, herbicidal effect rating ([12]; AAH 320 g/ha): 5 (Herbicidal rate of 90% or more (almost completely withered))
herbicidal effect rating, B: Japanese bulrush [13]: 3 (Herbicidal rate of 40% or more and less than 70%)
H: barnyard grass, herbicidal effect [14, 19]: 5 (Herbicidal rate of 90% or more (almost completely withered))
L: windgrass, herbicidal effect [15, 19]: 3 (Herbicidal rate of 40% or more and less than 70%)
R: persian speedwell, herbicidal effect rating ([16]; AAH 320 g/ha): 5 (Herbicidal rate of 90% or more (almost completely withered))
